In patent US8685674B2, “Chondroitin synthase, method for producing the same and method for producing saccharide chain-extended chondroitin” (Glytech, Inc., priority 2001, dated 2014):

Assays:
Assay type in all cases: biochemical
[1] = target: T1, soluble chondroitin synthase fused with a cleavable insulin signal sequence and a protein A (Homo sapiens, UniProt Q86X52, R588T); experiment: GlcUA transferase I (GlcAT-I) assay, UDP-[14C]GlcUA as donor; conditions: enzyme-bound beads, MES pH 6.5, 2 mM MnCl2, 37° C., one hour, average of two experiments
T1 construct: ID; NO: 2; made in house; host or cells: COS-1 cells (transient transfection; secreted fusion protein captured from the medium on IgG-Sepharose beads)
T1 sequence (Q86X52 47-802 R588T): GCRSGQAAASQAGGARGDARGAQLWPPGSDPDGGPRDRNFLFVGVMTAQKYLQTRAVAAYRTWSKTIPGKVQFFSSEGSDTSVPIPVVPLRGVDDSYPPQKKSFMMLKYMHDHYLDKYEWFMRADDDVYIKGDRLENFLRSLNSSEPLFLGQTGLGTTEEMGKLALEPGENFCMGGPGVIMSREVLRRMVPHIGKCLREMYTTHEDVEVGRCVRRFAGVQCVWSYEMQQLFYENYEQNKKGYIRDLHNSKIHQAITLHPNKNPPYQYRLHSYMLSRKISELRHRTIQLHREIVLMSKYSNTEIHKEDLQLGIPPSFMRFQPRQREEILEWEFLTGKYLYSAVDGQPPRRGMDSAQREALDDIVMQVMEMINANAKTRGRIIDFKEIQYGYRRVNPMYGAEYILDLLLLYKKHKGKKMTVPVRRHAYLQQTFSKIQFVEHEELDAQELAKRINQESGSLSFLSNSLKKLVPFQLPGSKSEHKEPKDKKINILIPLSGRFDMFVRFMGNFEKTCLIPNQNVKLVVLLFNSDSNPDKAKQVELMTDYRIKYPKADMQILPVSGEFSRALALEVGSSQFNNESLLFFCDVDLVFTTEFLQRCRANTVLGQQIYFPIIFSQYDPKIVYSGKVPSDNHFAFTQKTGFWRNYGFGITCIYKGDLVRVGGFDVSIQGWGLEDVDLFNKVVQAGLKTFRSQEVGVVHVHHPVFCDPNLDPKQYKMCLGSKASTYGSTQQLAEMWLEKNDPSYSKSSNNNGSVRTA
Procedure: (§1) By using FuGENE (Trademark) 6 (Roche Molecular Biochemicals Co., Tokyo), an expression plasmid (6.7 μg) was transfected into a COS-1 cell on a 100 mm plate, in accordance with a manual of the manufacture. On the second day from the transfection, 1 ml of an incubation liquid was collected and incubated together with 10 μL of IgG-Sepharose (Amersham Pharmacia Biotech) at 4° C. for one hour. Beads of the IgG-Sepharose was collected by centrifugation, and then washed with an assay buffer. After that, the beads were resuspended in an assay buffer of the same kind as the assay buffer. The beads were used for assaying GalNAc transferase, GlcUA transferase, and Gal transferase. That is, a fused protein occurred in the incubation liquid was absorbed by IgG-Sepharose so as to remove glycosyltransferases in the incubation liquid. […]
(§2) Assay of GlcUA transferase I (GlcAT-I), which is necessary for synthesis of tetrasaccharide for the linkage region, was carried out with a mixture of, in 30 μL in total, 10 μL of the resuspended beads, 1 nmol Galβ1-3Galβ1-4Xyl, 14.3 μM UDP-[^14C]GlcUA (1.46×10^5 dpm), 50 mM MES buffer, pH6.5, and 2 mM MnCl2 (FEBS lett. 459, 415-420 (1999)). […] The thus collected labeled products were quantified by liquid scintillation spectroscopy.

[2] = target: T1, soluble chondroitin synthase fused with a cleavable insulin signal sequence and a protein A; experiment: GalNAc transferase assay, UDP-[3H]GalNAc as donor; conditions: for ACTIVITY (receptor specificity): enzyme-bound beads, MES pH 6.5, 10 mM MnCl2, 37° C., one hour, average of two experiments
Procedure: By using FuGENE (Trademark) 6 (Roche Molecular Biochemicals Co., Tokyo), an expression plasmid (6.7 μg) was transfected into a COS-1 cell on a 100 mm plate, in accordance with a manual of the manufacture. On the second day from the transfection, 1 ml of an incubation liquid was collected and incubated together with 10 μL of IgG-Sepharose (Amersham Pharmacia Biotech) at 4° C. for one hour. Beads of the IgG-Sepharose was collected by centrifugation, and then washed with an assay buffer. After that, the beads were resuspended in an assay buffer of the same kind as the assay buffer. The beads were used for assaying GalNAc transferase, GlcUA transferase, and Gal transferase. That is, a fused protein occurred in the incubation liquid was absorbed by IgG-Sepharose so as to remove glycosyltransferases in the incubation liquid. Then, by using the enzyme bound beads as an enzyme source, glycosyltransferase activity of the fused protein that was bound to the beads was assayed with various receptor substrates and donor substrates.
As a receptor for GalNAc transferase, a polymer (167 μg) of chondroitin, α-thrombomodulin (1 nmol), or GlcUAβ1-3Galβ1-3Galβ1-4Xylβ1-0-Ser (1 nmol) was used. Moreover, as a receptor for GlcUA transferase, the polymer (167 μg) of chondroitin or Galβ1-3Galβ1-4Xylβ (1 nmol) was used. As a receptor of Gal transferase, sheep submandibular asialomucin (300 μg) or GlcNAcβ1-3Galβ1-4GlcNAcβ1-3Galβ1-4GlcNAc (1 nmol) was used. […]
as §2

[3] = target: T1, soluble chondroitin synthase fused with a cleavable insulin signal sequence and a protein A; experiment: GlcUA transferase II (GlcAT-II) assay, chondroitin polymer as receptor, UDP-[14C]GlcUA as donor
Procedure: as §1, §2

[4] = target: T1, soluble chondroitin synthase fused with a cleavable insulin signal sequence and a protein A; experiment: Gal transferase assay, UDP-[3H]Gal as donor; conditions: enzyme-bound beads, MES pH 6.5, 10 mM MnCl2, 37° C., one hour, average of two experiments
Procedure: as §1, §2

OC[C@H]1O[C@@H](O[C@H]2[C@@H](O)[C@@H](CO)O[C@@H](O[C@@H]3COC(O)[C@H](O)[C@H]3O)[C@@H]2O)[C@H](O)[C@@H](O)[C@H]1O (stereo partly shown) [Galβ1-3Galβ1-4Xyl]
ACTIVITY (receptor specificity) [1]: ND (ND: Not Detected (<0.1 pmol/ml medium/time))

N[C@@H](CO[C@@H]1OC[C@@H](O[C@@H]2O[C@H](CO)[C@H](O)[C@H](O[C@@H]3O[C@H](CO)[C@H](O)[C@H](O[C@@H]4O[C@H](C(=O)O)[C@@H](O)[C@H](O)[C@H]4O)[C@H]3O)[C@H]2O)[C@H](O)[C@H]1O)C(=O)O [GlcUAβ1-3Galβ1-3Galβ1-4Xylβ-O-Ser, GlcUAβ1-3Galβ1-3Galβ1-4Xylβ1-O-Ser]
ACTIVITY (receptor specificity) [2]: ND (ND: Not Detected (<0.1 pmol/ml medium/time))

Chondroitin
glycosyltransferase activity detected or not (in words) [3]: Activities were detected | ACTIVITY (receptor specificity) ([3]; enzyme-bound IgG-Sepharose beads, pH 5.6, 10 mM MnCl2, 37° C., one hour, average of two experiments): 5.2 pmol/ml medium/time | glycosyltransferase activity detected or not (in words) [2]: Activities were detected | ACTIVITY (receptor specificity) [2]: 1.4 pmol/ml medium/time

GlcNAcβ1-3Galβ1-4GlcNAcβ1-3Galβ1-4GlcNAc
ACTIVITY (receptor specificity) [4]: ND (ND: Not Detected (<0.1 pmol/ml medium/time))
